Where “and” joins values, the source holds several entries; their conditions need not be identical. Identical values can stand only once.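 1) Cells in 96-well plates. 2) Compound, 48 h, 5 concentrations. 3) Linear interpolation between surrounding doses. 4) Unreached endpoint = highest concentration. GI50 marks 50% less growth. Definition used: TGI = concentration required for complete inhibition of growth.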
Tested on: MDA-MB-468 breast
Test: NCI tumour cell line growth inhibition, 48 h

**Q.** With `COc1cc(C(=O)/C=C/c2c(C)n([O-])c3ccc(C)cc3[n+]2=O)cc(OC)c1OC` as the compound, how does the GI50 read?
**A.** 2.59 µM

**Q.** And the TGI?
**A.** 9.94 µM

**Q.** Which GI50 does the source give for `CC(=O)N[C@@H](Cc1ccc(OP(=O)(O)O)cc1)C(=O)N[C@H]1CCC(=O)N2CCC[C@@H](C(=O)NCc3ccc(Cl)cc3)N2C1=O` here?
**A.** > 25 µM

**Q.** What about the TGI of the same compound?
**A.** > 25 µM

**Q.** Which results are given for `COc1ccc(C2CC(c3cc(OC)c(OC)c(OC)c3)=NO2)cc1OCCCCOc1cc2c(cc1OC)C(=O)N1CCC[C@H]1C=N2` (stereo partly drawn)?
**A.** GI50: 1.34 µM; TGI: 2.97 µM

**Q.** What does the source list for `Cc1cccc(NC(=O)CCc2ccc(N3C(N)=NC(N)=NC3(C)C)cc2)c1`?
**A.** GI50: 0.692 µM; TGI: > 51.4 µM

**Q.** `Clc1ccc(CSC(Cn2ccnc2)c2ccc(Cl)cc2Cl)cc1` (stereo not drawn) was tested. Which GI50 did it give?
**A.** 1.39 µM

**Q.** And the TGI?
**A.** 3.37 µM

**Q.** Which GI50 does the source give for `N#Cc1cnc2ccc(-c3cnc(N)nc3)cc2c1N1CCc2cc(F)c(Cl)cc21` here?
**A.** 0.38 µM

**Q.** And the TGI?
**A.** 2.04 µM

**Q.** Which GI50 does the source give for `CC12CCC3C(CCC4Cc5[nH]c6ccccc6c5CC43C)C1CCC2O` (stereo not drawn) here?
**A.** 2.78 µM

**Q.** And the TGI?
**A.** > 100 µM

**Q.** How did the GI50 turn out when `COc1ccc2[nH]c(=O)c3c4ccccc4cn3c2c1` was run?
**A.** 0.179 µM

**Q.** What about the TGI of the same compound?
**A.** 1.36 µM

**Q.** `C[C@@H]1COCCN1c1cc(C2([S@](C)(=N)=O)CC2)nc(-c2ccnc3[nH]ccc23)n1` was tested. Which GI50 did it give?
**A.** 3.12 µM and 4.14 µM

**Q.** And the TGI?
**A.** 27.2 µM and > 10 µM

**Q.** `CC1(C)N=C(N)N=C(N)N1c1cccc(CCCCc2cccc(S(=O)(=O)F)c2)c1` was tested. Which GI50 did it give?
**A.** 0.748 µM

**Q.** What about the TGI of the same compound?
**A.** 26.4 µM

**Q.** What does the source list for `Cn1cc(-c2ccc3c(Nc4cccc(NC(=O)Nc5cccc(F)c5)c4)ncnc3c2)cn1`?
**A.** GI50: 0.107 µM; TGI: 1.64 µM

**Q.** What does the source list for `O=C(NNc1nc2cc(F)ccc2n2c(CN3CCCC3)ccc12)c1cnccn1`?
**A.** GI50: 1.6 µM; TGI: 6.9 µM

**Q.** How did the GI50 turn out when `CCN(CC)CCOCC[C@H]1CC[C@H]2[C@@H]3[C@H](C)Cc4cc(OS(N)(=O)=O)ccc4[C@H]3CC[C@]12C` was run?
**A.** 0.259 µM

**Q.** And the TGI?
**A.** 1.36 µM

**Q.** With `COc1cc2c(cc1O)CC[C@@H]1[C@@H]2CC[C@]2(C)[C@@H](NCCN(C)C)CC[C@@H]12` as the compound, how does the GI50 read?
**A.** 0.126 µM

**Q.** What about the TGI of the same compound?
**A.** 0.499 µM

**Q.** How did the GI50 turn out when `OC(c1cccc(-n2ccc(C(F)(F)F)n2)c1)c1cnccc1NC1CCCCCC1` (stereo not drawn) was run?
**A.** 1.64 µM

**Q.** What about the TGI of the same compound?
**A.** 3.28 µM

**Q.** How did the GI50 turn out when `F` was run?
**A.** 4500 µM

**Q.** What about the TGI of the same compound?
**A.** > 6870 µM

**Q.** What does the source list for `COc1cc(NS(C)(=O)=O)ccc1Nc1c2ccc([N+](=O)[O-])cc2nc2c(C)cccc12`?
**A.** GI50: 0.246 µM; TGI: 0.873 µM

**Q.** For `C=CC[n+]1c(/C=C/C=C2\N(C)c3ccccc3C2(C)C)sc2ccc(OC)cc21`, which GI50 is on record?
**A.** 0.0297 µM

**Q.** What about the TGI of the same compound?
**A.** 1.05 µM

**Q.** For `Cc1ccc([N+](=O)[O-])cc1NC(=O)Nc1cccc(F)c1`, which GI50 is on record?
**A.** 3.6 µM

**Q.** And the TGI?
**A.** 24.7 µM

**Q.** Which results are given for `CCS(=O)(=O)N1CCC(C(C)n2c(C)c(C(=O)NCc3c(OC)cc(C)[nH]c3=O)c3ccccc32)CC1` (stereo not drawn)?
**A.** GI50: 92 µM; TGI: > 100 µM

**Q.** For `CC(C)[C@]12O[C@H]1[C@@H]1O[C@]13[C@]1(O[C@H]1C[C@H]1C4=C(CC[C@@]13C)C(=O)OC4)[C@@H]2O`, which GI50 is on record?
**A.** 0.0176 µM

**Q.** What about the TGI of the same compound?
**A.** 0.0385 µM

**Q.** Which results are given for `COC(=O)CCC(=O)C(=O)OC`?
**A.** GI50: 90800 µM; TGI: > 100000 µM

**Q.** With `CCSCC1CC(O)(c2ccccc2)C(c2ccccc2)C(c2ccc(Cl)cc2)O1` (stereo not drawn) as the compound, how does the GI50 read?
**A.** 1.7 µM

**Q.** What about the TGI of the same compound?
**A.** 3.55 µM

**Q.** Which results are given for `COc1ccc(CC(C)=C(c2ccc(OCCN3CCCC3)cc2)c2ccc(OCCN3CCCC3)cc2)cc1`?
**A.** GI50: 0.777 µM; TGI: 3.1 µM

**Q.** How did the GI50 turn out when `CCNC(=O)[C@@H]1CCCN2C(=O)CC[C@H](NC(=O)[C@H](Cc3ccc(OP(=O)(O)O)cc3)NC(C)=O)C(=O)N12` was run?
**A.** > 25 µM

**Q.** And the TGI?
**A.** > 25 µM

**Q.** For `CN(C)CCOc1ccc(-c2nc(-c3ccc4c(c3)CC/C4=N\O)c(-c3ccncc3)[nH]2)cc1`, which GI50 is on record?
**A.** 3.63 µM and 2.74 µM

**Q.** And the TGI?
**A.** 7.37 µM and 24.4 µM

**Q.** How did the GI50 turn out when `Nc1ccc2c(c1)C(=O)C(=O)c1c-2nc2ccccn12` was run?
**A.** 1.53 µM

**Q.** What about the TGI of the same compound?
**A.** 3.11 µM

**Q.** For `C=C1C(=O)O[C@H]2[C@H]1CC/C(CNC(=O)Cc1c[nH]c3ccccc13)=C\CC[C@@]1(C)O[C@@H]21`, which GI50 is on record?
**A.** 0.795 µM

**Q.** What about the TGI of the same compound?
**A.** 2.73 µM

**Q.** Which results are given for `FC(F)(F)Oc1cccc(-c2cnc3ccc(-c4ccncc4)nn23)c1`?
**A.** GI50: 0.59 µM; TGI: 3.77 µM

Source: PubChem BioAssay (NCI)
